Tested on: 994946-033-R-J1-PDC complex spheroid viability
Experiment: Anticancer human tumor 994946-033-R-J1-PDC patient-derived melanoma cell line growth inhibition [POLQ]
Conditions: for IC50: curve of first compound; for viability, T/C: stronger effect = lower value; active means viability on the fitted dose curve at most 10% of control; inactive means the rest
Experimental: Multicellular complex tumor spheroid response to Polymerase (POL) inhibitors (novobiocin, ART-558, RP6685) in combination with a variety of drugs and investigational agents in selected tumor cell lines
The POL inhibitors (novobiocin, ART-558, and RP6685) were evaluated both individually and in combination with standard of care and investigational anticancer small molecules within a complex spheroid model of solid tumors. . Complex spheroids include a stromal component modeled by human endothelial cells (HUVEC) and fibroblasts modeled by human mesenchymal stem cells (MSCs). The concentration ranges selected for each drug and investigational agent were based upon clinically achievable concentrations if the clinical Cmax of the agent was known.
Compounds. The drugs and investigational agents: novobiocin (NSC847541), ART-558 (NSC835418), RP-6685 (NSC848927), peposertib (NSC802822), ceralasertib (NSC780249), elimusertib (NSC800525), camonsertib (NSC841442), AZD-1390 (NSC803789), olaparib (NSC753686), talazoparib (NSC767125), rucaparib (NSC756644), sotorasib (NSC818433), MRTX-1133 (NSC836407), SN-38 (NSC673596), topotecan (NSC609699), epotoside (NSC141540), doxorubicin (NSC123127), gemcitabine (NSC613327), 5-fluorouracil (NSC19893), paclitaxel (NSC125973), vemurafenib (NSC761431), MSA-2 (NSC828583), SN-011 (NSC837082), adavosertib (NSC754352), prexasertib (NSC758257), carboplatin (NSC241240) and oxaliplatin (NSC266046), were obtained from the National Cancer Institute (NCI) Developmental Therapeutics Program Chemical Repository (21). The FDA-approved anticancer drug set is available from the Developmental Therapeutics Program at https://dtp.cancer.gov/organization/dscb/obtaining/. […] The stock solutions were prepared in dimethyl sulfoxide (DMSO, Sigma-Aldrich, St. Louis, MO, cat. D2650), except for the platinum compounds which were prepared in saline (Quality Biological, Gaithersburg, MD, cat. 114-055-101), at 800-fold the tested concentration and stored at -70 degrees C prior to their use. All drugs and investigational agents were tested over a range starting from a high concentration at or near the clinical Cmax and decreasing in half-log increments. If the clinical Cmax for an agent had not been determined, the highest concentration tested was 10 microM, except for SN-38, which was tested at a high concentration of 1 microM.
Cell Culture. All cells were maintained in an incubator at 37 degrees C and 5% CO2 with 95% humidity. The PDC lines were cultured according to standard operating procedures established by the NCI PDMR (https://pdmr.cancer.gov). Table 3 of the manuscript, lists the cell lines along with the number of the three cell types plated to form the mct-spheroids and media for tumor cell growth. After thawing, all PDC lines, except 997537-175-T-J1-PDC and 415267-285-R-J2-PDC, were cultured in Matrigel-coated flasks prepared with a working solution of 1X Ham's F-12 nutrient mix, without supplementation (Thermo Fisher Scientific, cat. 11765054), 100 U/mL penicillin-streptomycin (Thermo Fisher Scientific, cat. 15140122), and 2.5% Matrigel (Corning Inc., Corning, NY, cat. 354248) for the first three passages. The two PDC lines 997537-175-T-J1-PDC and 415267-285-R-J2-PDC were cultured on uncoated flasks. The 857933-349-R-J2-PDC line was cultured in 6C/Colon 1B media containing advanced DMEM/F-12 (Thermo Fisher Scientific, cat. 12634028), 10 mM HEPES (Thermo Fisher Scientific, cat. 15630080), 1X GlutaMAX supplement (Thermo Fisher Scientific, cat. 35050061), 0.1 mg/mL primocin (InvivoGen, San Diego, CA, cat. ant-pm-2), 10% defined fetal bovine serum, heat inactivated (HyClone Laboratories Inc., Logan, UT, cat. SH30070.03HI), 50% L-WRN conditioned media (ATCC, cat. CRL-3276), 1.25 mM N-Acetyl-L-cysteine (Sigma-Aldrich, cat. A9165), 10 mM nicotinamide (Sigma-Aldrich, cat. N0636), 1X B-27 supplement (Thermo Fisher Scientific, cat. 17504044), 1X N-2 supplement (Thermo Fisher Scientific, cat. […]

[1] = second compound 0.0316 µM, first compound 0.0316 µM
[2] = second compound 0.0316 µM, first compound 0.1 µM
[3] = second compound 0.0316 µM, first compound 0.316 µM
[4] = second compound 0.0316 µM, first compound 1 µM
[5] = second compound 0.0316 µM, first compound 3.16 µM
[6] = second compound 0.0316 µM, first compound 10 µM
[7] = second compound 0.1 µM, first compound 0.0316 µM
[8] = second compound 0.1 µM, first compound 0.1 µM
[9] = second compound 0.1 µM, first compound 0.316 µM
[10] = second compound 0.1 µM, first compound 1 µM
[11] = second compound 0.1 µM, first compound 3.16 µM
[12] = second compound 0.1 µM, first compound 10 µM
[13] = second compound 0.316 µM, first compound 0.0316 µM
[14] = second compound 0.316 µM, first compound 0.1 µM
[15] = second compound 0.316 µM, first compound 0.316 µM
[16] = second compound 0.316 µM, first compound 1 µM
[17] = second compound 0.316 µM, first compound 3.16 µM
[18] = second compound 0.316 µM, first compound 10 µM
[19] = second compound 1 µM, first compound 0.0316 µM
[20] = second compound 1 µM, first compound 0.1 µM
[21] = second compound 1 µM, first compound 0.316 µM
[22] = second compound 1 µM, first compound 1 µM
[23] = second compound 1 µM, first compound 3.16 µM
[24] = second compound 1 µM, first compound 10 µM
[25] = second compound 3.16 µM, first compound 0.0316 µM
[26] = second compound 3.16 µM, first compound 0.1 µM
[27] = second compound 3.16 µM, first compound 0.316 µM
[28] = second compound 3.16 µM, first compound 1 µM
[29] = second compound 3.16 µM, first compound 3.16 µM
[30] = second compound 3.16 µM, first compound 10 µM
[31] = second compound 10 µM, first compound 0.0316 µM
[32] = second compound 10 µM, first compound 0.1 µM
[33] = second compound 10 µM, first compound 0.316 µM
[34] = second compound 10 µM, first compound 1 µM
[35] = second compound 10 µM, first compound 3.16 µM
[36] = second compound 10 µM, first compound 10 µM
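Further: spheroids exposed to drugs for 7 days.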
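Wherever viability, T/C is given: 100% = DMSO vehicle treated spheroids.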

C=CC(=O)N1CCN(c2nc(=O)n(-c3c(C)ccnc3C(C)C)c3nc(-c4c(O)cccc4F)c(F)cc23)C(C)C1 (centres undefined) + Nc1ccc(C#CCN(C(=O)Cc2ncc(C(F)(F)F)cc2C(F)(F)F)c2ccc(F)cc2)nn1
inactive: viability, T/C [1] 92.1% | viability, T/C [2] 94.9% | viability, T/C [3] 73.3% | viability, T/C [4] 119% | viability, T/C [5] 130% | viability, T/C [6] 86.9% | viability, T/C [7] 102% | viability, T/C [8] 108% | viability, T/C [9] 75.2% | viability, T/C [10] 119% | viability, T/C [11] 74.6% | viability, T/C [12] 70.7% | viability, T/C [13] 104% | viability, T/C [14] 52.8% | viability, T/C [15] 112% | viability, T/C [16] 110% | viability, T/C [17] 103% | viability, T/C [18] 73.7% | viability, T/C [19] 94.2% | viability, T/C [20] 125% | viability, T/C [21] 108% | viability, T/C [22] 102% | viability, T/C [23] 130% | viability, T/C [24] 122% | viability, T/C [25] 80.7% | viability, T/C [26] 112% | viability, T/C [27] 83.8% | viability, T/C [28] 119% | viability, T/C [29] 118% | viability, T/C [30] 98.4% | viability, T/C [31] 110% | viability, T/C [32] 117% | viability, T/C [33] 110% | viability, T/C [34] 105% | viability, T/C [35] 120% | viability, T/C [36] 116%
> 10 µM: IC50 (second compound 0.0316 µM) | IC50 (second compound 0.1 µM) | IC50 (second compound 0.316 µM) | IC50 (second compound 1 µM) | IC50 (second compound 3.16 µM) | IC50 (second compound 10 µM)

CCc1cc2c(N3CCc4c(cc(Cn5ccnc5)cc4-c4cn(C)nc4C(F)(F)F)C3=O)cc(C)nc2c(OC)n1 + Cc1cccc(N(C)C(=O)C2C(O)CCN2c2nc(C)cc(C(F)(F)F)c2C#N)c1
> 10 µM: IC50 (second compound 0.0316 µM) | IC50 (second compound 0.1 µM) | IC50 (second compound 0.316 µM) | IC50 (second compound 3.16 µM) | IC50 (second compound 10 µM)
6.22 µM: IC50 (second compound 1 µM)
inactive: viability, T/C [1] 74.7% | viability, T/C [2] 61.9% | viability, T/C [3] 94.6% | viability, T/C [4] 79.2% | viability, T/C [5] 68.4% | viability, T/C [6] 69.9% | viability, T/C [7] 73% | viability, T/C [8] 84.7% | viability, T/C [9] 90.7% | viability, T/C [10] 88.8% | viability, T/C [11] 90.5% | viability, T/C [12] 77.6% | viability, T/C [13] 63% | viability, T/C [14] 78.5% | viability, T/C [15] 60.2% | viability, T/C [16] 66.5% | viability, T/C [17] 61.3% | viability, T/C [18] 53.1% | viability, T/C [19] 106% | viability, T/C [20] 76.1% | viability, T/C [21] 78.8% | viability, T/C [22] 81.4% | viability, T/C [23] 69.6% | viability, T/C [24] 38% | viability, T/C [25] 76.5% | viability, T/C [26] 83.3% | viability, T/C [27] 60.4% | viability, T/C [28] 74.3% | viability, T/C [29] 66.8% | viability, T/C [30] 67.6% | viability, T/C [31] 76% | viability, T/C [32] 73.2% | viability, T/C [33] 68.1% | viability, T/C [34] 89.2% | viability, T/C [35] 73.8% | viability, T/C [36] 64.1%
